These results are taken from US10172875B2, “Therapeutic combinations comprising anti-FOLR1 immunoconjugates” (ImmunoGen, Inc., priority 2015, dated 2019).

In one series the test system is IGROV-1 cells. Put plainly: Cell cycle analysis, IMGN853 and carboplatin (FIG. 9B). The format is cell-based. Particulars: carboplatin 20 μM, IMGN853 8 nM, alone or combined, 6 hours, then 24 hour drug-free medium. As for the experimental part:
Cells were washed, and cell cycle distribution determined following 24 hour culture in drug-free medium.

The subject of series [1] is platinum-sensitive ovarian cancer patient derived xenografts (PDXs). Briefly: IMGN853 and carboplatin, single administration, in platinum-sensitive ovarian cancer PDX (FIG. 9D). The format is in vivo, SCID mice. The note with it: single administration: IMGN853 2.5 mg/kg and/or carboplatin 80 mg/kg; day 39. On the procedure:
Data are expressed as mean and standard error of the mean (SEM) for each time point.
To examine whether these in vitro cellular effects translated to improved efficacy in vivo, mice bearing patient-derived xenografts (PDX) obtained from an individual with EOC were treated with IMGN853 and carboplatin, both as single agents and in combination (FIG. 9D). […] Animals received a single administration of IMGN853 (2.5 mg/kg) or carboplatin (80 mg/kg), and each regimen inhibited tumor growth as monotherapy (T/C values of 43% and 20% on day 39, respectively).

The test system of series [2] is OV90 serous ovarian tumor xenografts. Put plainly: Antitumor activity of IMGN853, cediranib and combination in OV90 tumor model (Example 9). The format is in vivo, SCID mice. Particulars: IMGN853 2.5 mg/kg 1× and/or cediranib 1.5 mg/kg qd×5. The source says: The term “respond favorably” generally refers to causing a beneficial state in a subject. With respect to cancer treatment, the term refers to providing a therapeutic effect on the subject. Positive therapeutic effects in cancer can be measured in a number of ways (See, W. A. Weber, J. Nucl. Med. 50:1S-10S (2009)). For example, tumor growth inhibition, molecular marker expression, serum marker expression, and molecular imaging techniques can all be used to assess therapeutic efficacy of an anti-cancer therapeutic. Log10 Cell Kill (LCK) can be used to quantify the tumor cell kill. Log10 cell kill (LCK) is calculated with the formula LCK=(T−C)/Td×3.32, where (T−C) (or tumor growth delay (TGD)) is the median time (in days) for the treatment group and control group tumors to reach a predetermined size (tumor-free survivors excluded). Td is the tumor doubling time (estimated from nonlinear exponential curve fit of daily median of control tumor growth), and 3.32 is the number of cell doublings per log of cell growth. The ability to reduce tumor volume may be assessed, for example, by measuring a % T/C value, which is the median tumor volume of treated subjects divided by the median tumor volume of the control subjects. With respect to tumor growth inhibition, according to NCI standards, a T/C≤42% is the minimum level of anti-tumor activity. A T/C<10% is considered a high anti-tumor activity level, with T/C (%)=Median tumor volume of the treated/Median tumor volume of the control×100. A favorable response can be assessed, for example, by increased progression-free survival (PFS), disease-free survival (DFS), or overall survival (OS), complete response (CR), partial response (PR), or, in some cases, stable disease (SD), a decrease in progressive disease (PD), a […] time to progression (TTP), a decrease in CA125 in the case of ovarian cancer, or any combination thereof.

Series [3] has the same test system. Briefly: Antitumor activity of IMGN853 (1.25 mg/kg), paclitaxel, bevacizumab and combinations in OV90 tumor model (Example 4). The note with it: single doses: IMGN853 1.25 mg/kg, paclitaxel 10 mg/kg, bevacizumab 5 mg/kg; for T/C: alone or combined; for CR: responders/animals. The class given is in vivo, SCID mice.
Protocol: Mice were randomized into groups (n=8 per group) by tumor volume and subsequently dosed on Day 14 post-inoculation. All treatments consisted of single doses (1×).
Tumor volumes were measured one to two times weekly in three dimensions using a caliper. […] Body weights were measured twice per week as an index of toxicity.
Series [4] deals with ST088 human epithelial ovarian cancer (EOC) patient-derived tumor xenografts. Briefly: Antitumor activity of IMGN853, bevacizumab, paclitaxel and combinations in ST088 tumor model (Example 6). The format is in vivo, SCID mice. The note with it: QWx2: IMGN853 5 mg/kg, bevacizumab 5 mg/kg, paclitaxel 10 mg/kg; for T/C: alone or combined; for CR / PR: responders/animals. As for the experimental part:
Tumor volumes were measured twice weekly in three dimensions using a caliper.

In series [5] the test system is OV90 serous ovarian tumor xenografts. Put plainly: Antitumor activity of IMGN853 (2.5 mg/kg), bevacizumab and combination in OV90 tumor model (Example 3). The format is in vivo, SCID mice. Particulars: IMGN853 2.5 mg/kg 1× and/or bevacizumab 5 mg/kg 1×. From the text:
FIG. 2B depicts the results.

Series [6] has as its system OV-90 xenografts. Briefly: Fractionated bevacizumab dosing with IMGN853 in OV-90 xenografts (FIG. 11A). The class given is in vivo, mice. The note with it: IMGN853 3 mg/kg; bevacizumab single 5 mg/kg dose or two 2.5 mg/kg doses (QWx2); monotherapy or combination.
Series [7] concerns platinum-resistant ovarian cancer PDXs. Briefly: IMGN853 with bevacizumab in platinum-resistant ovarian cancer PDX, 102-day study (FIG. 11B). The format is in vivo, mice. From the text:
Tumor growth was monitored out to 102 days. * P=0.011; ** P=0.018; ns, not significant (Wilcoxon test, non-adjusted).

Series [8] has as its system IGROV-1 ovarian tumor xenografts. Briefly: Antitumor activity of IMGN853, bevacizumab and combination in IGROV-1 tumor model (Example 5). The class given is in vivo, SCID mice. Particulars: IMGN853 5 mg/kg 1× and/or bevacizumab 5 mg/kg 1×. From the text:
(§1) All treatments consisted of single doses (1×).
FIG. 4 depicts the results.

Series [9] relates to OV-90 xenografts. Briefly: OV-90 tumors harvested 4 days post-dosing: histology, γH2AX, CD31, anti-maytansine (FIGS. 12A-12C). The class given is in vivo, mice. The note with it: IMGN853 2.5 mg/kg and/or bevacizumab 5 mg/kg; day 4. As for the experimental part:
Original magnification, 4×; scale bars, 2 mm (for Combination panel, 600 μm).
For each group, representative micrographs from one of three tumors are shown. Original magnification, 20×; scale bars, 200 μm.
Next, as a pharmacodynamic readout, tumor γH2AX levels were measured by immunoblotting (FIG. 12B).
While genotoxic insults are the primary inducers of γH2AX, accumulation of this protein can also occur in response to hypoxia. […] In order to examine treatment-related effects on microvessels, immunohistochemical staining with the endothelial cell marker CD31 was performed (FIG. 12C, upper panel).

Series [10] deals with OV90 serous ovarian tumor xenografts. Particulars: IMGN853 5 mg/kg 1× and/or bevacizumab 5 mg/kg 1×.
Protocol: Mice were randomized into groups (n=6 per group) by tumor volume and subsequently dosed on Day 14 post-inoculation.
Tumor volumes were measured one to two times weekly in three dimensions using a caliper. The tumor volume was expressed in mm^3 using the formula V=Length×Width×Height×½ (Tomayko and Reynolds, Cancer Chemother. Pharmacol. 24:148-54 (1989)) Body weights were measured twice per week as an index of toxicity. Activity was assessed as described in Bissery et al. (1991).
Series [11] relates to H2110 non-small cell lung cancer (NSCLC) tumor xenografts.
Protocol: Mice were randomized into groups (n=6-10 per group) by tumor volume and subsequently dosed on Day 7 post-inoculation. All treatments consisted of single doses (1×).
Tumor volumes were measured one to two times weekly in three dimensions using a caliper. The tumor volume was expressed in mm^3 using the formula V=Length×Width×Height×½ (Tomayko 1989). Body weights were measured twice per week as an index of test agent toxicity. Activity was assessed as described in Bissery et al. (1991).
Series [12] has as its system OV90 ovarian tumor xenografts. Put plainly: Antitumor activity of carboplatin doublets and triple-combinations in OV90 tumor model (Example 8). The class given is in vivo, SCID mice. Particulars: single doses: IMGN853 5 mg/kg, carboplatin 100 mg/kg, bevacizumab 5 mg/kg, paclitaxel 10 mg/kg.
From the text: as §1
FIG. 7 depicts the results.

Series [13] concerns platinum-sensitive PDX tumors. Briefly: Carboplatin doublets QWx2 in platinum-sensitive PDX (FIG. 9E). The note with it: PLD 4 mg/kg or IMGN853 5 mg/kg. The class given is in vivo, mice. On the procedure:
The combinatorial benefit conferred by IMGN853/carboplatin treatment was compared with clinically relevant chemotherapeutic combinations in the same PDX model. Tumor-bearing animals received two consecutive weekly doses (QWx2) of carboplatin (80 mg/kg, i.p.) in combination with i.v. paclitaxel (10 mg/kg), PLD (4 mg/kg), or IMGN853 (5 mg/kg). As expected, treatment with the carboplatin-paclitaxel doublet was efficacious in this model of platinum sensitivity (FIG. 9E). […] The higher incidence of CRs was strongly indicative of a better durability of response for the combination, and overall the data further supports the combination of IMGN853 with carboplatin for improving response to platinum therapy in EOC.

[14] abbreviates: IMGN853 3 mg/kg 1× and/or bevacizumab 5 mg/kg 1×.
The mark [15] stands for this setting: IMGN853 3 mg/kg 1× and/or bevacizumab 5 mg/kg 1×, responders/animals.

Like-named read-outs stand apart in the source and are kept apart here.

Broadly, the T/C is the ratio of treated to control. As for `N.N.O=C([O-])C1(C(=O)[O-])CCC1.[Pt+2]` [carboplatin, reference compound], in the series on IGROV-1 cells, the cell cycle distribution result is “accumulation of IGROV-1 cells in both the S and G2/M phases”. In addition, the T/C in series [1] is reported as 20%.
As to `COc1cc2c(Oc3ccc4[nH]c(C)cc4c3F)ncnc2cc1OCCCN1CCCC1` [cediranib, reference compound], in series [2], the T/C was 80% and the antitumor activity rating result is “inactive”. For the same compound, in series [2] (Log10 cell kill), the LCK is recorded as 0.1. In addition, the PR in series [2] (responders/animals) is 0/6. Besides, the “T−C” value in series [2] (tumor growth delay) is given as 4 days.
For the compound `CC(=O)O[C@H]1C(=O)[C@@]2(C)[C@H]([C@H](OC(=O)c3ccccc3)[C@]3(O)C[C@H](OC(=O)[C@H](O)[C@@H](NC(=O)c4ccccc4)c4ccccc4)C(C)=C1C3(C)C)[C@]1(OC(C)=O)CO[C@@H]1C[C@@H]2O` [paclitaxel], in series [3], the TFS was 0/6, the antitumor activity rating entry is “inactive”, the T/C is listed as 94% and the CR is recorded as 0/6. In [4], the antitumor activity rating result was “inactive”, the T/C was 71%, the CR is given as 0/8 and the PR is reported as 0/8.
Regarding “bevacizumab: recombinant humanized monoclonal IgG1 anti-VEGF antibody; active ingredient in Avastin [reference compound]”, the T/C in [5] was 31%; in series [3] it was 22%; in series [8], 51%; in series [4], 6%; in series [10] it was 37%; in [11] (setting [14]), 22%. Moreover, the TFS is reported as 0/6 in series [5], 0/8 in [3], 0/4 in series [8] and 0/6 in series [11] (setting [14]). Moreover, the antitumor activity rating result is “active” in series [5]; “active” in series [3]; “inactive” in series [8]; “highly active” in [4]; “active” in [10]; “active” in series [11] (setting [14]). Besides, the CR in [5] (responders/animals) is on record as 0/6; in series [3] it was 0/8; in series [8] (responders/animals), 0/4; in [4], 0/8; in series [10] (responders/animals), 0/6; in series [11] (setting [15]), 0/6. Further, the antitumor effect entry with OV-90 xenografts [6] is recorded as “Split-dosing had no effect”; in [7] (IMGN853 5 mg/kg QWx2, bevacizumab 5 mg/kg QWx2, alone or combined), “prolonged growth control”. Besides, the CRs result in series [7] (5 mg/kg QWx2, over the course of a 102-day study) is reported as “no CRs”. Also, the values for the PR in series [4] and in [11] (setting [15]) were 0/8 and 0/6, respectively. The “tumor microvessels, CD31 immunohistochemical staining” value in the series with OV-90 xenografts [9] was “decreased in size and showed loss of luminal integrity”. The “tumor free survivors (TFS)” value in series [10] is 0/6. Moreover, in series [11] (bevacizumab 5 mg/kg monotherapy, Day 49 post-inoculation), the body weight loss was found to be 9%.
In the case of paclitaxel+carboplatin, in series [12], the T/C was 45%, the TFS was 0/6, the antitumor activity rating entry was “inactive” and the “body weight loss (BWL) at nadir” value is listed as 11.1%. In series [12] (responders/animals), the CR is recorded as 0/6. Further, the antitumor effect result in series [13] (QWx2: carboplatin 80 mg/kg i.p. with i.v. paclitaxel 10 mg/kg) was “efficacious”. For the same compound, in series [13] (QWx2: carboplatin 80 mg/kg i.p. with paclitaxel 10 mg/kg), the tolerability entry was “well tolerated”. Also, the “complete regressions (CR)” value in series [13] (QWx2: carboplatin 80 mg/kg i.p. with paclitaxel 10 mg/kg, n=7 mice/group) is reported as “none”.
